Test system: microorganisms on surfaces of a surgical center
Experiment: Efficiency of disinfectants: reduction of microbial counts on surgical center surfaces
Settings: post- vs pre-disinfection; same letter = no significant difference (p < 0.05)

Row | SMILES | Reduction of counts microbial (%)
1 | OCl [0.5% sodium hypochlorite, sodium hypochlorite] | 61 b %
2 | CC(C)O [70% isopropanol, isopropyl alcohol] | 87 a %

— US20230226003A1, “NATURAL ANTIBACTERIAL AND ANTIVIRAL BIOLOGICAL COMPOSITIONS, COMPOUNDS, METHOD FOR OBTAINING SAME, AND USE THEREOF” (BEEOTEC HOLDING S/A, priority 2020, published 2023)
